Literature values in US20100221326A1, “PHARMACEUTICAL COMPOSITIONS FOR ORAL USE FOR TREATING PATIENTS AFFECTED BY OBESITY” (MADER S.R.L., priority 2007, published 2010).

Conditions: raw material

degradation of the active principle (25° C., 65% RH, after 7 days' storage): 15%
degradation (40° C., RH 75%): greater than 40%
Structure (SMILES): CCCCCCCCCCC[C@@H](C[C@@H]1OC(=O)[C@H]1CCCCCC)OC(=O)[C@H](CC(C)C)NC=O [Orlistat]
